According to US8685394B2, “Combination of anti-CTLA4 antibody with diverse therapeutic regimens for the synergistic treatment of proliferative diseases” (Bristol-Myers Squibb Company, priority 2008, dated 2014):
Entries after “also recorded” stand apart in the source; their conditions may differ. Read-outs that look alike come from different tables or passages of the source.

Tests used:
[1] = tested on: CT26 colon carcinoma; conditions: dasatinib 30 mg/kg, concurrent CTLA-4 mAb
[2] = tested on: P815 mastocytoma; conditions: SPRYCEL 30 mg/kg P.O., anti-CTLA-4 mAb IP days 10, 14, 18
[3] = tested on: STAT3; conditions: Yu, H. et al., 2007; cited from earlier work
[4] = tested on: T-cell function; conditions: in vitro; concentrations of 10-50 nM; inhibition of cytokine secretion and degranulation; Weischel et al., 2008; cited from earlier work
[5] = tested on: T-cell activation; conditions: Schade et al., 2007; cited from earlier work
[6] = tested on: M109 lung carcinoma; conditions: dasatinib with CTLA-4 mAb
[7] = tested on: SA1N fibrosarcoma; conditions: dasatinib 30 mg/kg daily or 5 days on/2 days off, concurrent CTLA-4 mAb
[8] = tested on: M109 lung carcinoma; assay: M109 lung carcinoma subcutaneous tumor model; type: in vivo, murine; conditions: for CR / T-C (1000 mm^3) / PR / % TGI (Average): M109 s.c.; for CR: complete regression = non-palpable tumor for ≧2 assessments; for T-C (1000 mm^3): number of days to reach target tumor size 1000 mm^3, doses and schedules of Table 1; for PR: partial regression = 50% reduction in tumor volume for ≧2 assessments; for % TGI (Average): percent tumor growth inhibition, each treatment at dose (mg/kg) and schedule (study days) of Table 1
Protocol: (§1) All compounds were tested at their optimal dose and schedule. When used in combination, CTLA-4 mAb was initiated one day after the first dose of chemotherapy. Percent tumor growth inhibition and number of days to reach target tumor size were used to evaluate efficacy. Antitumor activity was scored as: complete regression (CR; non-palpable tumor for ≧2 assessments) or partial regression (PR; 50% reduction in tumor volume for ≧2 assessments).

[9] = tested on: M109 lung metastasis; assay: M109 lung carcinoma model of experimental pulmonary metastasis; type: in vivo, murine; conditions: doses and schedules of Table 2, control vehicle 32
[10] = tested on: SA1N fibrosarcoma; assay: SA1N fibrosarcoma subcutaneous tumor model; type: in vivo, murine; conditions: SA1N s.c.; for % TGI (Average D 20-48): average of days 20-48, doses and schedules of Table 3; for CR: mice with complete regression / mice in group; for PR: mice with partial regression / mice in group; for T-C (1000 mm^3): number of days to reach target tumor size 1000 mm^3
Protocol: as §1

[11] = tested on: tumor models; assay: Antitumor activity in murine tumor models, model not stated (FIG. 6, 8, 9, 10; summary); type: in vivo; conditions: concurrent treatment
[12] = tested on: CT26 colon carcinoma; assay: CT26 colon carcinoma subcutaneous tumor model; type: in vivo, murine; conditions: for % TGI (Average) / CR / PR / T-C (1000 mm^3): CT26 s.c.; for % TGI (Average): doses and schedules of Table 4; for CR: mice with complete regression / mice in group; for PR: mice with partial regression / mice in group; for T-C (1000 mm^3): number of days to reach target tumor size 1000 mm^3
Protocol: as §1

[13] = tested on: in vivo cytotoxicity; conditions: FIG. 12
[14] = tested on: immune cells in tumor-draining lymph nodes; assay: Composition of immune cells in tumor-draining lymph nodes (FIG. 13); type: in vivo
[15] = CT26 colon carcinoma, established tumors

Cc1nc(Nc2ncc(C(=O)Nc3c(C)cccc3Cl)s2)cc(N2CCN(CCO)CC2)n1 [dasatinib, N-(2-chloro-6-methylphenyl)-2-[[6-[4-(2-hydroxyethyl)-1-piperazinyl]-2-methyl-4-pyrimidinyl]amino]-5-thiazolecarboxamide]
antitumor activity / combination effect, in words [1]: minimal activity | antitumor activity / combination effect, in words [2]: modest antitumor activity | inhibition of STAT3 [3]: potent inhibition of STAT3 | effect on T-cell function [4]: inhibits T-cell function | effect on T-cell activation [5]: blockade of T-cell activation | antitumor activity / combination effect, in words [6]: minimal activity | antitumor activity / combination effect, in words [7]: modest antitumor activity

CC(=O)O[C@H]1C(=O)[C@@]2(C)[C@H]([C@H](OC(=O)c3ccccc3)[C@]3(O)C[C@H](OC(=O)[C@H](O)[C@@H](NC(=O)c4ccccc4)c4ccccc4)C(C)=C1C3(C)C)[C@]1(OC(C)=O)CO[C@@H]1C[C@@H]2O [Paclitaxel, 5beta,20-Epoxy-1,2alpha,4,7beta,10beta,13alpha-hexahydroxytax-11-en-9-one 4,10-diacetate 2-benzoate 13-ester with (2R,3S)-N-benzoyl-3-phenylisoserine]
CR [8]: 0 | T-C (1000 mm^3) [8]: 5 | PR [8]: 0 | % TGI (Average) [8]: 45% | antitumor activity / combination effect, in words ([8]; mouse, in vivo, sc): modestly sensitive | Median Survival Time [9]: 38 days | % TGI (Average D 20-48) [10]: 65% | CR [10]: 0/8 | PR [10]: 0/8 | T-C (1000 mm^3) [10]: 13 | CTLA-4 blockade activity under concurrent chemotherapy [11]: not abolished | % TGI (Average) [12]: 0% | CR [12]: 0/8 | PR [12]: 0/8 | T-C (1000 mm^3) [12]: 0 | antitumor activity / combination effect, in words ([12]; mouse, in vivo): ineffective

4′-Demethylepipodophyllotoxin 9-[4,6-O-(R)-ethylidene-β-D-glucopyranoside], 4′-(dihydrogen phosphate) [Etoposide]
CR [8]: 0 | T-C (1000 mm^3) [8]: 9 | PR [8]: 0 | % TGI (Average) [8]: 59% | antitumor activity / combination effect, in words ([8]; M109 subcutaneous tumor model): modestly sensitive | Median Survival Time [9]: 34 days | % TGI (Average D 20-48) [10]: 88% | CR [10]: 0/8 | PR [10]: 1/8 | T-C (1000 mm^3) [10]: 14 | CTLA-4 blockade activity under concurrent chemotherapy [11]: not abolished | antitumor activity / combination effect, in words [12, 15]: effective as single agents | % TGI (Average) [12]: 66% | CR [12]: 1/8 | PR [12]: 0/8 | T-C (1000 mm^3) [12]: 11

Cl.Nc1ccn([C@@H]2O[C@H](CO)[C@@H](O)C2(F)F)c(=O)n1 (single isomer, unassigned) [Gemcitabine, 2′-deoxy-2′,2′-difluorocytidine monohydrochloride (β-isomer)]
CR [8]: 0 | T-C (1000 mm^3) [8]: 2.2 | PR [8]: 0 | % TGI (Average) [8]: 32% | antitumor activity / combination effect, in words ([8]; M109 subcutaneous tumor model): modestly sensitive; also recorded: did not produce significant antitumor activity | antitumor activity / combination effect, in words ([8]; M109 subcutaneous tumor model, listed as Gem): modestly sensitive; also recorded: did not produce significant M109 antitumor activity | in vivo cytotoxicity [13]: promote in vivo cytotoxicity | Median Survival Time [9]: 42 days | composition of immune cells in tumor-draining lymph nodes [14]: modulates the composition of immune cells | % TGI (Average D 20-48) [10]: 68% | CR [10]: 0/8 | PR [10]: 0/8 | T-C (1000 mm^3) [10]: 11 | CTLA-4 blockade activity under concurrent chemotherapy [11]: not abolished | antitumor activity / combination effect, in words [12, 15]: effective as single agents | % TGI (Average) [12]: 102% | CR [12]: 2/8 | PR [12]: 0/8 | T-C (1000 mm^3) [12]: 12
